From EP1831172B1, “SUBSTITUTED CARBAMIC ACID QUINOLIN-6-YL ESTERS USEFUL AS ACETYLCHOLINESTERASE INHIBITORS” (priority 2004, dated 2006)
pIC50: −log10 of the molar value. Read-outs that look alike come from different tables or passages of the source.

Tests used:
[1] = test system: scopolamine induced deficit (dementia/amnesia) in mice; test: Single trial passive avoidance test, scopolamine induced amnesia; type: in vivo; settings: Mus musculus, 24 h
Protocol: Single trial passive avoidance is widely used as experimental test to assess learning memory functions in rodents. […] Passive Avoidance Test (in vivo): Study was conducted in adult Swiss male mice of 3-4 months (wt. 20-25 g) which were kept in standard housing condition with 12h light and dark cycle. Food and water were available ad libitum. […] Passive avoidance test was studied by a computerized shuttle box (Columbus Instruments, Ohio, USA) provided with a software program PACS 30. The shuttle box comprises of two compartments, isolated by an automated door. […] Each mouse was placed in the bright compartment and on transfer into the dark compartment it was given an electric shock (0.5 mA for 5 s) through floor grid. Transfer of mice from bright to dark compartment was recorded as transfer latency time (TLT) in seconds. TLT was recorded in control and treated groups (1st Trial, acquisition) and then after 24 hours (2nd Trial, retention). An increase in the TLT on 2nd Trial (retention) as compared to 1st Trial (acquisition) was taken as the criterion for successful learning and memory (cognitive activity). Scopolamine induced deficit (Dementia): Scopolamine a muscarinic antagonist, known to produce impairment in cognitive functions (dementia) in human as well as in experimental animals, was used to produce deficit (no significant increase on 2nd trial) in passive avoidance learning. Scopolamine was administered 5 min prior to 1st trial. Reversal of scopolamine induced deficit i.e. significant increase in 2nd trial by test substance indicates potential anti-dementia activity. […]. Drug administration: Scopolamine was administered 5 min prior to 1st trial in test group. Each test compound was administered orally in dose of 20µmol/kg (1% aq. suspension in gum acacia) 1 hour prior to 2nd trial in scopolamine treated mice (n=5). Scopolamine control group received 1 ml/kg of vehicle (1% aq. suspension in gum acacia) orally. Scopolamine was administered 5 min prior to 1st trial in test group. […] Donepezil (10 mg/kg, po, as1% aqueous suspension in gum acacia) was used as standard drug and given 1 hour prior to 2nd trial in scopolamine treated mice. Statistical analysis: Mean values and standard error (S.E.) of mean were calculated for TLT and specific activity of AChE in the different regions of brain samples of each group. The significance of difference between the values of AChE activity and TLT between the groups was determined by one-way ANOVA test that followed by Dunnett's test. Table 4: Effect of the compounds on scopolamine induced amnesia in passive avoidance test

[2] = biological target: T1, Acetylcholinesterase (Rattus norvegicus, UniProt P37136); test: Inhibitive effect on acetylcholinesterase activity (Ellman assay, rat brain homogenate supernatant); type: biochemical, rats; settings: for % Cholinesterase Enzyme Activity: Control AChE activity = 0.014446 (µmol / mg of protein/min)
T1 construct: Aliquots of this supernatant was diluted in the ratio of 1:10 and used as a source of enzyme for the assay; from tissue; host or cells: whole brain of adult SD male rats; 10% homogenate with 1% Triton X-100, 100,000 x g supernatant
T1 sequence (P37136 32-614): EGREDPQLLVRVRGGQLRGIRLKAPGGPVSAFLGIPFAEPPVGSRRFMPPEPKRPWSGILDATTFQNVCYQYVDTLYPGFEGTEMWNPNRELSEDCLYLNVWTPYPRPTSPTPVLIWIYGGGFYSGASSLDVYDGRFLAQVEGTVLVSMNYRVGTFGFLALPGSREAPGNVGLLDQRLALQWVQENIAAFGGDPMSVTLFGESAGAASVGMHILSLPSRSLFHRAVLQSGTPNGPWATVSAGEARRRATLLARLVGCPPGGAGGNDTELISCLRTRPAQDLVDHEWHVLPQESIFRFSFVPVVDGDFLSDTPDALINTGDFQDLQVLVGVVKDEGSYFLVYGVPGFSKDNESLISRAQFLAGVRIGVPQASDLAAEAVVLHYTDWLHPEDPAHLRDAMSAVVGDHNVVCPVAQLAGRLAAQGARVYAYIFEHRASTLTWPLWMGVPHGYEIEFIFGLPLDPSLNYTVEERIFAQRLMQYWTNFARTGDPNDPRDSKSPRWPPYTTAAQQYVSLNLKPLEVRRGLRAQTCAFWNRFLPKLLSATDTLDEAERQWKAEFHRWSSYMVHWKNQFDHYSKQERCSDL
Protocol: The study was conducted in adult SD male rats (200-250 g). Rats were perfused under mild ether anesthesia through heart with ice cooled normal saline (0.9% NaCl) to reduce blood-borne cholinesterase from brain. After perfusion whole brain was taken out. 10% (w/v) homogenate of brain was prepared first by homogenizing in Ultra-Turrax T25 homogenizer at a speed of 9500 rpm thrice giving intervals for few seconds in between the runs, with sodium phosphate buffer (30 mmol/lit, pH 7.0). Sodium phosphate buffer was taken in a volume half to the final volume required for 10% homogenate. 1% Triton X-100 (1% w/v in 30 mmol/lit. sodium phosphate buffer, pH 7.0) is then added in a volume to make the final volume for 10% homogenate, slowly while stirring the homogenate on ice.
Kinetic profile of the enzyme activity was studied spectrophotometrically at 412 nm at an interval of 15 s. Assay for each sample was run in duplicate and each experiment was performed thrice.
The specific activity of AChE is expressed in µmoles/min/mg of protein.
[…] Tacrine (1µmol) was used as standard AChE inhibitor (standard control). The AChE inhibitory activity was calculated on the basis of % decrease change from control values i.e. AChE acivity without incubation with any standard or test drug.
Bovine serum albumin (BSA) was used as standard in the concentration of 1 mg/ml. was estimated in the range of 0.01-0. mg/ml.

[3] = % Learning in treated gp - % Learning in Scopolamine gp, test compound orally 20µmol/kg, Donepezil 10 mg/kg po, read-out: % Improvement in Learning
[4] = [2nd Trial - 1st trial/1st trial] x 100, scopolamine treated mice, test compound orally 20µmol/kg, Donepezil 10 mg/kg po, read-out: % Learning

**Q.** Which change in vivo at 20 µmol/kg [1, 3] does the source give for `CCCCCCNC(=O)Oc1ccc2c(c1)CCCN2Cc1ccccc1` [2h, hexyl-carbamic acid 1-benzyl-1,2,3,4-tetrahydro-quinolin-6-yl ester] here?
**A.** 89.2%

**Q.** And the change in vivo at 20 µmol/kg [1, 4]?
**A.** 123%

**Q.** With `CCCCCCCNC(=O)Oc1ccc2ncccc2c1` [1b, heptyl-carbamic acid quinolin-6-yl ester] as the molecule, how does the change in vivo at 20 µmol/kg [1, 3] read?
**A.** 107%

**Q.** What about the change in vivo at 20 µmol/kg [1, 4] of the same molecule?
**A.** 140%

**Q.** With `O=C(Nc1ccccc1Cl)Oc1ccc2ncccc2c1` [1c, (2-chloro-phenyl)-carbamic acid quinolin-6-yl ester] as the molecule, how does the change in vivo at 20 µmol/kg [1, 3] read?
**A.** 123%

**Q.** What about the change in vivo at 20 µmol/kg [1, 4] of the same molecule?
**A.** 157%

**Q.** What does the source list for `O=C(Nc1ccccc1Cl)Oc1ccc2c(c1)CCCN2Cc1ccccc1` [2i, (2-chloro-phenyl)-carbamic acid 1-benzyl-1,2,3,4-tetrahydro-quinolin-6-yl ester]?
**A.** change in vivo at 20 µmol/kg [1, 3]: 89.6%; change in vivo at 20 µmol/kg [1, 4]: 123%; pIC50 [2]: 5.48; % Anticholinesterase Enzyme Inhibition ([2]; Conc. 0.1 µm): 6.45%; Cholinesterase Enzyme Activity ([2]; Conc. 0.1 µm): 0.01351 µmol / mg of protein/min; % Cholinesterase Enzyme Activity ([2]; Conc. 0.1 µm): 93.54%; % Anticholinesterase Enzyme Inhibition ([2]; Conc. 0.3 µm): 16.12%; Cholinesterase Enzyme Activity ([2]; Conc. 0.3 µm): 0.01211 µmol / mg of protein/min; % Cholinesterase Enzyme Activity ([2]; Conc. 0.3 µm): 83.87%; % Anticholinesterase Enzyme Inhibition ([2]; Conc. 1 µm): 25.80%; Cholinesterase Enzyme Activity ([2]; Conc. 1 µm): 0.01071 µmol / mg of protein/min; % Cholinesterase Enzyme Activity ([2]; Conc. 1 µm): 74.19%; % Anticholinesterase Enzyme Inhibition ([2]; Conc. 3 µm): 48.38%; Cholinesterase Enzyme Activity ([2]; Conc. 3 µm): 0.007456 µmol / mg of protein/min; % Cholinesterase Enzyme Activity ([2]; Conc. 3 µm): 51.61%; % Anticholinesterase Enzyme Inhibition ([2]; Conc. 10 µm): 87.09%; Cholinesterase Enzyme Activity ([2]; Conc. 10 µm): 0.001864 µmol / mg of protein/min; % Cholinesterase Enzyme Activity ([2]; Conc. 10 µm): 12.90%

**Q.** What does the source list for `CN1CCCc2cc(OC(=O)Nc3ccc(Cl)c(C(F)(F)F)c3)ccc21` [2q, (4-chloro-3-trifluoromethyl-phenyl)-carbamic acid 1-methyl-1,2,3,4-tetrahydro-quinolin-6-yl ester]?
**A.** change in vivo at 20 µmol/kg [1, 3]: 76%; change in vivo at 20 µmol/kg [1, 4]: 109%

**Q.** Which results are given for `O=C(Nc1cccc(Br)c1)Oc1ccc2c(c1)CCCN2` [2c, (3-bromo-phenyl)-carbamic acid 1,2,3,4-tetrahydro-quinolin-6-yl ester]?
**A.** change in vivo at 20 µmol/kg [1, 3]: 67.4%; change in vivo at 20 µmol/kg [1, 4]: 101%

**Q.** `CN1CCCc2cc(OC(=O)Nc3ccc(Br)cc3)ccc21` [2r, (4-bromo-phenyl)-carbamic acid 1-methyl-1,2,3,4-tetrahydro-quinolin-6-yl ester] was tested. Which change in vivo at 20 µmol/kg ([1]; po, read-out: % Improvement in Learning) did it give?
**A.** 62%

**Q.** And the change in vivo at 20 µmol/kg ([1]; po, read-out: % Learning)?
**A.** 95.6%

**Q.** What does the source list for `COc1cc2c(cc1OC)C(=O)C(CC1CCN(Cc3ccccc3)CC1)C2` (centres unmarked) [DONEPEZIL, donepezil, reference compound]?
**A.** change in vivo at 20 µmol/kg [1, 3]: 134%; change in vivo at 20 µmol/kg [1, 4]: 168%
